# Data taken from US20230293517A1, “ANTAGONIST COMPOUNDS” (AdoRx Therapeutics Limited, priority 2020, published 2023).
# Structures can show the parent of a compound that is named as a salt. Where two headings read alike, the source gives them in different places.
# How the values were obtained:
# [1] = target: human Adenosine A3 receptor (Homo sapiens (Human), UniProt P0DMS8); assay: Adenosine receptor TR-FRET binding assay (A3); conditions: inhibition of binding of 100 nM CA200645, CHO cell membranes
# human Adenosine A3 receptor, sequence (P0DMS8 whole entry): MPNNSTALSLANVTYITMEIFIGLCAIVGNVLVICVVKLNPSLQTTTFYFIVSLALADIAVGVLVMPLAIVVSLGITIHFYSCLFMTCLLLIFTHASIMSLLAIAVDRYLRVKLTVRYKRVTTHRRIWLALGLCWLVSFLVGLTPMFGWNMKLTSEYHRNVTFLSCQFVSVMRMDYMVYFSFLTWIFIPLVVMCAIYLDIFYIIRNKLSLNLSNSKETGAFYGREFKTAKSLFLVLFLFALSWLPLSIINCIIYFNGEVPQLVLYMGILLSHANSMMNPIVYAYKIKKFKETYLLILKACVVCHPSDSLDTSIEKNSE
# Protocol: (§1) Biological Example 1—Adenosine Receptor Time-Resolved Fluorescence Resonance Energy Transfer (TRFRET) Binding Assay
# (§2) All FRET binding experiments were conducted at room temperature in white 384-well plates, in assay binding buffer containing 1×LabMed (Cisbio, France), 100 μg/mL saponin, 1% DMSO and 0.02% pluronic acid. Binding of the fluorescently labelled Adenosine receptor antagonist XAC (CA200645, FRET acceptor) to terbium-labelled A1, A2a, A2b and A3 adenosine receptors (FRET donors) was detected by time-resolved FRET due to the close proximity of the donor and acceptor in a binding event. To investigate the ability of unlabelled test compounds to bind to Adenosine A1, A2a, A2b and A3 receptors, dose response curves were constructed that determined the ability of a range of concentrations to inhibit the binding of 30 nM CA200645 to the A2b receptor and 100 nM CA200645 to the A1, A2a, and A3 receptor.
# (§3) Serial dilution (1:3 dilutions) of test compounds in neat DMSO and transfer of a 400 nL sample of test compound into the assay plate was carried out using the Mosquito (TTP Labtech, UK). The compound samples were incubated for 2 hours at room temperature with a fixed concentration of CA200645 defined for each receptor (see above) and CHO cell membranes containing the human Adenosine A1 (0.5 μg/well), A2a (0.3 μg/well), A2b (1 μg/well) or A3 (1 μg/well) receptor in 40 μL of assay buffer. Total and non-specific binding of CA200645 was determined in the absence and presence of 10 μM XAC, respectively. Following 2 hours incubation, the level of CA200645 binding was detected on a Pherastar FSX (BMG Labtech, Germany) using standard TR-FRET settings. The terbium donor was excited with three laser flashes at a wavelength of 337 nm, and donor and acceptor emission was detected at 620 nm and 665 nm wavelengths, respectively. FRET ratios were obtained by multiplying the acceptor/donor ratio value by 10,000. Specific binding was determined by subtracting the non-specific binding FRET ratio from the total binding FRET ratio. Compound IC50 curves were analysed using GraphPad Prism 7.0 (GraphPad, USA) and Ki affinity values were determined from the obtained IC50 values using the method of Cheng and Prusoff.
# [2] = target: human Adenosine A2a receptor (Homo sapiens (Human), UniProt P29274); assay: Adenosine receptor TR-FRET binding assay (A2a); conditions: inhibition of binding of 100 nM CA200645, CHO cell membranes
# human Adenosine A2a receptor, sequence (P29274 whole entry): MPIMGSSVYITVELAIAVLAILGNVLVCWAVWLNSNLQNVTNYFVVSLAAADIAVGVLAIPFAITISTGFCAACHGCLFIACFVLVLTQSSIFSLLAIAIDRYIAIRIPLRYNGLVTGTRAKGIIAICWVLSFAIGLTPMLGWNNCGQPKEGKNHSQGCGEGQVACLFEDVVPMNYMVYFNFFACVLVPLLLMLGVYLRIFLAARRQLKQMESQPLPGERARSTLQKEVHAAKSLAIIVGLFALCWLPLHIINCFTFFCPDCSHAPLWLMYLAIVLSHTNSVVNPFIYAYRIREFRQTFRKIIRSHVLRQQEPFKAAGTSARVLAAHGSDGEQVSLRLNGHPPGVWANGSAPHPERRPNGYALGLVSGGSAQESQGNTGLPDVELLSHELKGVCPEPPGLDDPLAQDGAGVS
# Protocol: as §1, §2, §3
# [3] = target: human Adenosine A2b receptor (Homo sapiens (Human), UniProt P29275); assay: Adenosine receptor TR-FRET binding assay (A2b)
# human Adenosine A2b receptor, sequence (P29275 whole entry): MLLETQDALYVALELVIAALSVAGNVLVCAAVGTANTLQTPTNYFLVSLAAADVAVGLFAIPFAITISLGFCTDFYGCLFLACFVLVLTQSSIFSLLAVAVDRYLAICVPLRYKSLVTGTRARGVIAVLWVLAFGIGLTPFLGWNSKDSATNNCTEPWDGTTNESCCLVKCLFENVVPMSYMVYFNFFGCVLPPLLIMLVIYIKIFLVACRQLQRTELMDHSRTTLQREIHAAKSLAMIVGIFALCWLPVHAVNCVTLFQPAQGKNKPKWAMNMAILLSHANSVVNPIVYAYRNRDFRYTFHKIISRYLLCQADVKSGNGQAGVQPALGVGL
# Protocol: as §1, §2, §3
# [4] = target: human Adenosine A1 receptor (Homo sapiens (Human), UniProt P30542); assay: Adenosine receptor TR-FRET binding assay (A1); conditions: inhibition of binding of 100 nM CA200645, CHO cell membranes
# human Adenosine A1 receptor, sequence (P30542 whole entry): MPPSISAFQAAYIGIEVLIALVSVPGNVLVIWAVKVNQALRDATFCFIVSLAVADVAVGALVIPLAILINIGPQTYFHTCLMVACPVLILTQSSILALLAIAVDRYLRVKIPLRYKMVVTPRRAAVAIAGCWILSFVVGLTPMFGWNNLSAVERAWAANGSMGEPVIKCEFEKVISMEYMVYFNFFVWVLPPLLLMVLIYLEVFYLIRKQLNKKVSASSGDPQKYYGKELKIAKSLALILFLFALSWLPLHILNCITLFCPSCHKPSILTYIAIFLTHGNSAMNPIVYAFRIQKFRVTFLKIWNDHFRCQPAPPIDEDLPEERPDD
# Protocol: as §1, §2, §3
# [5] = TR-FRET, inhibition of binding of 30 nM CA200645, CHO cell membranes
SMILES,Ki [1],Ki [2],Ki [3],Ki [4],"Ki [3, 5]"
"Cc1cc(-c2sc(NC(=O)N3C[C@H]4OCCN(C)[C@H]4C3)nc2-c2cccc(C#N)c2)cc(C(F)F)n1 (racemic) [Example 6.106, rac-(4aS,7aR)-N-[4-(3-Cyanophenyl)-5-[2-(difluoromethyl)-6-methyl-4-pyridyl]thiazol-2-yl]-4-methyl-2,3,4a,5,7,7a-hexahydropyrrolo[3,4-b][1,4]oxazine-6-carboxamide]",0.195 µM,0.00107 µM,0.0045 µM,0.139 µM,
"Cc1cc(-c2sc(NC(=O)N3C[C@@H]4OCCN(C)[C@H]4C3)nc2-c2cccc(C#N)c2)cc(C(F)F)n1 (racemic) [Example 6.109, rac-(4aS,7aS)-N-[4-(3-Cyanophenyl)-5-[2-(difluoromethyl)-6-methyl-4-pyridyl]thiazol-2-yl]-4-methyl-2,3,4a,5,7,7a-hexahydropyrrolo[3,4-b][1,4]oxazine-6-carboxamide]",0.298 µM,0.0108 µM,0.0455 µM,0.471 µM,
"Cc1cc(-c2sc(NC(=O)N3CCOCC3)nc2-c2cccc(C#N)c2)cc(Cl)n1 [Example 1, N-[5-(2-Chloro-6-methyl-4-pyridyl)-4-(3-cyanophenyl)thiazol-2-yl]morpholine-4-carboxamide]",0.305 µM,0.00042 µM,,0.009 µM,0.0011 µM
"Cc1cc(-c2sc(NC(=O)N3CCC[C@@H]3C(C)(C)O)nc2-c2cccc(C#N)c2)cc(Cl)n1 [Example 3, (2R)—N-[5-(2-Chloro-6-methyl-4-pyridyl)-4-(3-cyanophenyl)thiazol-2-yl]-2-(1-hydroxy-1-methyl-ethyl)pyrrolidine-1-carboxamide]",1.98 µM,0.0582 µM,,1 µM,0.0506 µM
Cc1cc(-c2sc(NC(=O)N3CCCC3)nc2-c2cccc(C#N)c2)cc(Cl)n1 [Example 3.2],1.04 µM,0.0004 µM,,0.012 µM,0.0007 µM
Cc1cc(-c2sc(NC(=O)N3CCOCC3C(C)(C)O)nc2-c2cccc(C#N)c2)cc(Cl)n1 (centres unmarked) [Example 3.4],2.05 µM,0.0143 µM,,,0.0143 µM
Cc1cc(-c2sc(NC(=O)N3CCN[C@H](C(=O)O)C3)nc2-c2cccc(C#N)c2)cc(Cl)n1 [Example 3.5],0.928 µM,0.0116 µM,,0.434 µM,0.0114 µM
Cc1cc(-c2sc(NC(=O)N3CCN[C@@H](C(C)(C)O)C3)nc2-c2cccc(C#N)c2)cc(Cl)n1 [Example 3.10],0.144 µM,0.00817 µM,,0.135 µM,0.0122 µM
"COCC1(C#N)CCN(C(=O)Nc2nc(-c3cccc(C#N)c3)c(-c3cc(C)nc(C)c3)s2)CC1 [Example 4.6, 4-Cyano-N-[4-(3-cyanophenyl)-5-(2,6-dimethyl-4-pyridyl)thiazol-2-yl]-4-(methoxymethyl)piperidine-1-carboxamide]",0.17 µM,0.00018 µM,,0.041 µM,0.0012 µM
"Cc1cc(-c2sc(NC(=O)N3CCO[C@@H](CO)C3)nc2-c2cccc(C#N)c2)cc(C)n1 [Example 4.16, (2R)-N-[4-(3-Cyanophenyl)-5-(2,6-dimethyl-4-pyridyl)thiazol-2-yl]-2-(hydroxymethyl)morpholine-4-carboxamide]",0.265 µM,0.0009 µM,,0.041 µM,0.0022 µM

# Further lines, results first:
Ki [1],Ki [2],Ki [3],Ki [4],"Ki [3, 5]",SMILES
0.112 µM,0.00267 µM,0.0086 µM,0.041 µM,,"Cc1cc(-c2sc(NC(=O)N3C[C@@H]4NCCO[C@H]4C3)nc2-c2cccc(C#N)c2)cc(C(F)F)n1 (racemic) [Example 14.1, rac-(4aS,7aS)—N-[4-(3-Cyanophenyl)-5-[2-(difluoromethyl)-6-methyl-4-pyridyl]thiazol-2-yl]-3,4,4a,5,7,7a-hexahydro-2H-pyrrolo[3,4-b][1,4]oxazine-6-carboxamide 2,2,2-trifluoroacetic acid salt]"
0.132 µM,0.00209 µM,0.0083 µM,0.183 µM,,"Cc1cc(-c2sc(NC(=O)N3C[C@@H]4NCCO[C@@H]4C3)nc2-c2cccc(C#N)c2)cc(C(F)F)n1 (racemic) [Example 14.2, rac-(4aS,7aR)—N-[4-(3-Cyanophenyl)-5-[2-(difluoromethyl)-6-methyl-4-pyridyl]thiazol-2-yl]-3,4,4a,5,7,7a-hexahydro-2H-pyrrolo[3,4-b][1,4]oxazine-6-carboxamide 2,2,2-trifluoroacetic acid salt]"
,0.0294 µM,,0.122 µM,0.09 µM,"Cc1cc(-c2sc(NC(=O)N3CCNCC34CCC4)nc2-c2cccc(C#N)c2)cc(C)n1 [Example 7.10, N-[4-(3-Cyanophenyl)-5-(2,6-dimethyl-4-pyridyl)thiazol-2-yl]-5,8-diazaspiro[3.5]nonane-5-carboxamide]"
,0.0243 µM,,0.373 µM,0.196 µM,"Cc1cc(-c2sc(NC(=O)N3C[C@@H](C)N[C@@H](C)C3)nc2-c2cccc(C#N)c2)cc(C)n1 [Example 13, (3S,5R)—N-[4-(3-Cyanophenyl)-5-(2,6-dimethyl-4-pyridyl)thiazol-2-yl]-3,5-dimethyl-piperazine-1-carboxamide]"
,0.00064 µM,,0.164 µM,0.0019 µM,"Cc1cc(-c2sc(NC(=O)N3CC4(CNCCO4)C3)nc2-c2cccc(C#N)c2)cc(C)n1 [Example 13.1, N-[4-(3-Cyanophenyl)-5-(2,6-dimethyl-4-pyridyl)thiazol-2-yl]-5-oxa-2,8-diazaspiro[3.5]nonane-2-carboxamide]"
,0.0019 µM,,0.027 µM,0.0044 µM,"Cc1cc(-c2sc(NC(=O)N3CCNC4(CC4)C3)nc2-c2cccc(C#N)c2)cc(C)n1 [Example 13.2, N-[4-(3-Cyanophenyl)-5-(2,6-dimethyl-4-pyridyl)thiazol-2-yl]-4,7-diazaspiro[2.5]octane-7-carboxamide]"
,0.0114 µM,,0.322 µM,0.077 µM,"Cc1cc(-c2sc(NC(=O)N3C[C@H](C)N[C@@H](C)C3)nc2-c2cccc(C#N)c2)cc(C)n1 [Example 13.3, (3S,5S)-N-[4-(3-Cyanophenyl)-5-(2,6-dimethyl-4-pyridyl)thiazol-2-yl]-3,5-dimethyl-piperazine-1-carboxamide]"
,0.00018 µM,,0.013 µM,0.0042 µM,"Cc1cc(-c2sc(NC(=O)N3CCN[C@H](C#N)C3)nc2-c2cccc(C#N)c2)cc(C)n1 [Example 13.14, (3S)-3-Cyano-N-[4-(3-cyanophenyl)-5-(2,6-dimethyl-4-pyridyl)thiazol-2-yl]piperazine-1-carboxamide]"
,0.00033 µM,,0.041 µM,0.0051 µM,"Cc1cc(-c2sc(NC(=O)N3CCN[C@@H](C#N)C3)nc2-c2cccc(C#N)c2)cc(C)n1 [Example 13.15, (3R)-3-Cyano-N-[4-(3-cyanophenyl)-5-(2,6-dimethyl-4-pyridyl)thiazol-2-yl]piperazine-1-carboxamide]"
,0.00579 µM,,0.058 µM,0.0371 µM,"Cc1cc(-c2sc(NC(=O)N3CCNCC3C3CC3)nc2-c2cccc(C#N)c2)cc(C)n1 (centres unmarked) [Example 14.4, N-[4-(3-Cyanophenyl)-5-(2,6-dimethyl-4-pyridyl)thiazol-2-yl]-2-cyclopropyl-piperazine-1-carboxamide]"
,0.00043 µM,,0.061 µM,0.0025 µM,"Cc1cc(-c2sc(NC(=O)N3CCNCC3CC3CC3)nc2-c2cccc(C#N)c2)cc(C)n1 (centres unmarked) [Example 14.5, N-[4-(3-Cyanophenyl)-5-(2,6-dimethyl-4-pyridyl)thiazol-2-yl]-2-(cyclopropylmethyl)piperazine-1-carboxamide]"
,0.0156 µM,,0.185 µM,0.033 µM,"Cc1cc(-c2sc(NC(=O)N3CCNC(C)(C)C3)nc2-c2cccc(C#N)c2)cc(C)n1 [Example 14.6, N-[4-(3-Cyanophenyl)-5-(2,6-dimethyl-4-pyridyl)thiazol-2-yl]-3,3-dimethyl-piperazine-1-carboxamide]"
,0.00129 µM,,0.012 µM,0.01 µM,"Cc1cc(-c2sc(NC(=O)N3CC4(COC4)C3)nc2-c2cccc(C#N)c2)cc(C)[n+]1[O-] [Example 17, N-[4-(3-Cyanophenyl)-5-(2,6-dimethyl-1-oxido-pyridin-1-ium-4-yl)thiazol-2-yl]-2-oxa-6-azaspiro[3.3]heptane-6-carboxamide]"
